Measured values taken from ChEMBL document CHEMBL4002640, “Discovery of MK-1832, a Kv1.5 inhibitor with improved selectivity and pharmacokinetics” (Bioorg Med Chem Lett, 2017).
Active and inactive are the calls of the source.

Tests used:
[1] = Oral bioavailability in rhesus monkey; assay type: ADME, organism-based, Macaca mulatta; details: in vivo
Canis familiaris [2] = assay: Toxicity in anesthetized Mongrel dog assessed as effect on QRS interval at 0.3 to 100 ug/kg/min, iv administered as 60 mins infusion measured up to 60 mins by electrophysiology method; assay type: organism-based, Canis lupus familiaris; details: in vivo, 1 h
Canis familiaris [3] = assay: Selectivity index, ratio of compound effect for anti-atrial fibrillation activity in iv dosed anesthetized Mongrel dog assessed as increase in atrial refractory period to compound effect on ventricular refractory period in iv dosed anesthetized Mongrel dog; design: species or system Canis lupus familiaris
Canis familiaris [4] = assay: Anti-atrial fibrillation activity in anesthetized Mongrel dog assessed as increase in atrial refractory period at 400 ms of basic cycle length at 0.3 to 100 ug/kg/min, iv administered as 60 mins infusion measured up to 60 mins by electrophysiology method; assay type: functional, organism-based; details: Canis lupus familiaris
Canis familiaris [5] = assay: Anti-atrial fibrillation activity in iv dosed anesthetized Mongrel dog assessed as increase in atrial refractory period at 400 ms of basic cycle length administered as 60 mins infusion measured up to 60 mins by electrophysiology method; assay type: functional, Canis lupus familiaris
Canis familiaris [6] = assay: Toxicity in anesthetized Mongrel dog assessed as effect on mean arterial pressure at 0.3 to 100 ug/kg/min, iv administered as 60 mins infusion measured up to 60 mins by electrophysiology method; assay type: organism-based, Canis lupus familiaris; details: in vivo, 1 h
[7] = molecular target: T1, Voltage-gated inwardly rectifying potassium channel KCNH2 (Homo sapiens, UniProt Q12809); assay: Displacement of [3H]-MK499 from human ERG IKr channel expressed in HEK293 cell membranes
T1 sequence (Q12809 whole entry, the tested form may be a part): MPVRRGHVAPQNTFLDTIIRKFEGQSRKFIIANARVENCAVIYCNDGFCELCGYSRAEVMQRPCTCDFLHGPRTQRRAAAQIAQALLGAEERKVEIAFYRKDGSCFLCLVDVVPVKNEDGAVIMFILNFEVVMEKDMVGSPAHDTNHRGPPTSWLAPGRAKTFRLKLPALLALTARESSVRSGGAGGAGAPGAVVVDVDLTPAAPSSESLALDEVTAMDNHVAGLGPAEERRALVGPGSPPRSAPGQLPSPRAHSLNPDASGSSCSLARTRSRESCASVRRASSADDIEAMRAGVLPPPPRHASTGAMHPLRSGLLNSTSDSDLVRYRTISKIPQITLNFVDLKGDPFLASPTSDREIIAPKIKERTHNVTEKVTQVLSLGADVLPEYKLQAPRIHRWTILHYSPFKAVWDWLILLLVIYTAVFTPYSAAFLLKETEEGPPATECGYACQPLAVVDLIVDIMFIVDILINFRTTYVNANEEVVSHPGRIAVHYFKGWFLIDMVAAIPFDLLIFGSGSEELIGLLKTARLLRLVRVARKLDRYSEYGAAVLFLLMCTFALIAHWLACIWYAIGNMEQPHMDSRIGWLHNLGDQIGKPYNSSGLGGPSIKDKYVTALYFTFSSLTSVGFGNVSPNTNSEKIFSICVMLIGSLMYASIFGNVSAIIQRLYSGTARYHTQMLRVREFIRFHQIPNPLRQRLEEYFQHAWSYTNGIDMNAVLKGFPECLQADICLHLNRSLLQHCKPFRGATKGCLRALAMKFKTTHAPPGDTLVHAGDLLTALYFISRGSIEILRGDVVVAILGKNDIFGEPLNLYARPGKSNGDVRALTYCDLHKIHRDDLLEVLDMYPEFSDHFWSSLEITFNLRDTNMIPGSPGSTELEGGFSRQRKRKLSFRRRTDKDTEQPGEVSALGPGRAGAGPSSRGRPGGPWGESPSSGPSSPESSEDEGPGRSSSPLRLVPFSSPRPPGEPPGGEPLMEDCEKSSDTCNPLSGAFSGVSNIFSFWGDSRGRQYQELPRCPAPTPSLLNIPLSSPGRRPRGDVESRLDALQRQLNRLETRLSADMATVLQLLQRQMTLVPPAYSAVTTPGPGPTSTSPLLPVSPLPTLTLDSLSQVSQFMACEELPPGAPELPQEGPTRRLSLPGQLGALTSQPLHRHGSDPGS

Canis familiaris [8] = assay: Toxicity in anesthetized Mongrel dog assessed as effect on ventricular refractory period at 0.3 to 100 ug/kg/min, iv administered as 60 mins infusion measured up to 60 mins by electrophysiology method; assay type: organism-based, Canis lupus familiaris; details: in vivo, 1 h
[9] = Clearance in dog; assay type: ADME, Canis lupus familiaris; details: in vivo
[10] = Terminal half-life in dog; assay type: ADME, Canis lupus familiaris; details: in vivo, read-out: beta t1/2 (converted)
[11] = Protein binding in dog plasma; assay type: ADME, cell-free, Canis lupus familiaris; details: read-out: PPB (converted)
[12] = Clearance in rhesus monkey; assay type: ADME, Macaca mulatta; details: in vivo
[13] = Oral bioavailability in dog; assay type: ADME, organism-based, Canis lupus familiaris; details: in vivo
[14] = Terminal half-life in rat; assay type: ADME; details: in vivo, read-out: beta t1/2 (converted)
KCNQ1/KCNE1 (IKs) [15] = molecular target: T2, KCNQ1/KCNE1 (IKs) (Homo sapiens, UniProt P15382+P51787); assay: Inhibition of human KCNQ1/KCNE1 expressed in HEK293 cells assessed as reduction in slowly activating delayed rectifier cardiac potassium current at 10 uM by patch clamp electrophysiology method; assay type: cell-based; details: HEK293 cells expressing human KCNQ1/KCNE1
T2 sequence (P51787 whole entry): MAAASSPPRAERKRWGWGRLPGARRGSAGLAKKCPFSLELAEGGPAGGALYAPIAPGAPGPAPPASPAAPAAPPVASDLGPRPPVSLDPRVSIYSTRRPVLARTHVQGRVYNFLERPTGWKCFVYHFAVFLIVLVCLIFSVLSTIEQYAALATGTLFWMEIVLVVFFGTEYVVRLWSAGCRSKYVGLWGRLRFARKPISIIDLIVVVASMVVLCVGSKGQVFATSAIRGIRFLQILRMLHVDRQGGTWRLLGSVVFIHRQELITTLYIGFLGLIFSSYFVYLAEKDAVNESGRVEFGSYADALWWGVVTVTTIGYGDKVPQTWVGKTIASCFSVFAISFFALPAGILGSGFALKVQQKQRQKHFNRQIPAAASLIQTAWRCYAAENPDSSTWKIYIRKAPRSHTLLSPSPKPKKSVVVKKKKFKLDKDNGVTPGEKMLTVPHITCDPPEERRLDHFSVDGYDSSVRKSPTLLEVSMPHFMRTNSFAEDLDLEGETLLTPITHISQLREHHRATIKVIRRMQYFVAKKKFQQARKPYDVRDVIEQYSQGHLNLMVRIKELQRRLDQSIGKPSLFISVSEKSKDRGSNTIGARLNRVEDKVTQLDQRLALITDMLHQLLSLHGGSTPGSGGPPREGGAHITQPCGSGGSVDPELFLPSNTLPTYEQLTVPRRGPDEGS

[16] = molecular target: T3, A-type voltage-gated potassium channel KCND3 (Homo sapiens, UniProt Q9UK17); assay: Inhibition of Kv4.3 (unknown origin) assessed as reduction in transient outward potassium current by high throughput clamp method
T3 sequence (Q9UK17 whole entry): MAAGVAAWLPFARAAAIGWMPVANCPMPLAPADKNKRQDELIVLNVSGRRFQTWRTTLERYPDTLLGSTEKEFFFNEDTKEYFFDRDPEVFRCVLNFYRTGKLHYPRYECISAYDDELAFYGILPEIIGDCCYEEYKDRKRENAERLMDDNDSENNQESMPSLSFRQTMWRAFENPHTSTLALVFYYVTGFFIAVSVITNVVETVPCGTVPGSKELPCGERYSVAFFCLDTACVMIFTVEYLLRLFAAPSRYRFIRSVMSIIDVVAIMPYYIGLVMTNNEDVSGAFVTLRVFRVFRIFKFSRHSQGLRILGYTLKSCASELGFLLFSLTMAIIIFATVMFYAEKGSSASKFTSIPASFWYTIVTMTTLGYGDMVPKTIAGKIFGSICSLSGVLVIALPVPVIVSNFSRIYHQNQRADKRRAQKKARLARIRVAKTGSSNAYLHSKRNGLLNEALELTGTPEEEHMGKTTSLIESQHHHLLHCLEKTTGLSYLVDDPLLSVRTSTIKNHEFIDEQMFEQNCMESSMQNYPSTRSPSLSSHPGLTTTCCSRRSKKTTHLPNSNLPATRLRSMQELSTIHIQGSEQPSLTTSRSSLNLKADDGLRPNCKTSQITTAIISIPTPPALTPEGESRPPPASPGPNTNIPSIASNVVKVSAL

[17] = Protein binding in rhesus monkey plasma; assay type: ADME, cell-free, Macaca mulatta; details: read-out: PPB (converted)
[18] = Volume of distribution at steady state in rat; assay type: ADME; details: in vivo, read-out: Vdss
Canis familiaris [19] = assay: Toxicity in anesthetized Mongrel dog assessed as effect on heart rate at 0.3 to 100 ug/kg/min, iv administered as 60 mins infusion measured up to 60 mins by electrophysiology method; assay type: organism-based, Canis lupus familiaris; details: in vivo, 1 h
Canis familiaris [20] = assay: Toxicity in anesthetized Mongrel dog assessed as effect on PR interval at 0.3 to 100 ug/kg/min, iv administered as 60 mins infusion measured up to 60 mins by electrophysiology method; assay type: organism-based, Canis lupus familiaris; details: in vivo, 1 h
[21] = molecular target: T1, Voltage-gated inwardly rectifying potassium channel KCNH2; assay: Inhibition of human ERG expressed in CHOK1 cells assessed as reduction in rapidly activating delayed rectifier cardiac potassium current by whole-cell voltage-patch clamp assay; assay type: cell-based
[22] = Volume of distribution at steady state in dog; assay type: ADME, Canis lupus familiaris; details: in vivo, read-out: Vdss
[23] = Oral bioavailability in rat; assay type: ADME, organism-based; details: in vivo
[24] = Protein binding in rat plasma; assay type: ADME, cell-free; details: read-out: PPB (converted)
Canis familiaris [25] = assay: Toxicity in anesthetized Mongrel dog assessed as effect on QTc interval at 0.3 to 100 ug/kg/min, iv administered as 60 mins infusion measured up to 60 mins by electrophysiology method; assay type: organism-based, Canis lupus familiaris; details: in vivo, 1 h
[26] = Clearance in rat; assay type: ADME; details: in vivo
[27] = molecular target: T4, Potassium voltage-gated channel subfamily A member 5 (Homo sapiens, UniProt P22460); assay: Inhibition of Kv1.5 (unknown origin)
T4 sequence (P22460 whole entry, the tested form may be a part): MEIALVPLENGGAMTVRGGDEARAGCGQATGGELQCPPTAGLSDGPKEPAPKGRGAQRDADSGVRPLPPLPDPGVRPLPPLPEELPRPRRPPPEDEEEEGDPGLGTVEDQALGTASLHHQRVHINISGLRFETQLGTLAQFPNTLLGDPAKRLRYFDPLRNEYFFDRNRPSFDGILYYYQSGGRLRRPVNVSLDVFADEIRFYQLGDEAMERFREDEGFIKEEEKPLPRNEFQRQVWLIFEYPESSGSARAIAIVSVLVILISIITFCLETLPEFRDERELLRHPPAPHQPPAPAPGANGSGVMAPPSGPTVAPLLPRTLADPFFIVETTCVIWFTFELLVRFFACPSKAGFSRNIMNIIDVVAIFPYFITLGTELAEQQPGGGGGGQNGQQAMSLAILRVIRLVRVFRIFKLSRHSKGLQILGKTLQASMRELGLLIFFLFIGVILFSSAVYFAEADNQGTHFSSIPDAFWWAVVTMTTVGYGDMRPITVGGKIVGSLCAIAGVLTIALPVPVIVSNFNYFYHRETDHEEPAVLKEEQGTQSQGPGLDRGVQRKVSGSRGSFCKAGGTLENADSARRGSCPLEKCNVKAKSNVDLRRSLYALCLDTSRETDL

Canis familiaris [28] = assay: Effect on ventricular refractory period in iv dosed anesthetized Mongrel dog assessed as threshold change in ventricular refractory period at 400 ms of basic cycle length administered as 60 mins infusion measured up to 60 mins by electrophysiology method; assay type: ADME, organism-based, Canis lupus familiaris; details: in vivo, 1 h
Homo sapiens = organism: Homo sapiens; assay: Substrate activity at human P-gp assessed as efflux ratio
KCNQ1/KCNE1 (IKs) [29] = molecular target: T2, KCNQ1/KCNE1 (IKs); assay: Inhibition of human KCNQ1/KCNE1 expressed in HEK293 cells assessed as reduction in slowly activating delayed rectifier cardiac potassium current at 30 uM by patch clamp electrophysiology method; assay type: cell-based; details: HEK293 cells expressing human KCNQ1/KCNE1
[30] = molecular target: Sodium channel protein type 5 subunit alpha (Homo sapiens, UniProt Q14524); assay: Inhibition of SCN5a (unknown origin) assessed as reduction in sodium current at 10 uM by voltage/ion probe reader method
Chain of Sodium channel protein type 5 subunit alpha (Q14524 whole entry, the tested form may be a part): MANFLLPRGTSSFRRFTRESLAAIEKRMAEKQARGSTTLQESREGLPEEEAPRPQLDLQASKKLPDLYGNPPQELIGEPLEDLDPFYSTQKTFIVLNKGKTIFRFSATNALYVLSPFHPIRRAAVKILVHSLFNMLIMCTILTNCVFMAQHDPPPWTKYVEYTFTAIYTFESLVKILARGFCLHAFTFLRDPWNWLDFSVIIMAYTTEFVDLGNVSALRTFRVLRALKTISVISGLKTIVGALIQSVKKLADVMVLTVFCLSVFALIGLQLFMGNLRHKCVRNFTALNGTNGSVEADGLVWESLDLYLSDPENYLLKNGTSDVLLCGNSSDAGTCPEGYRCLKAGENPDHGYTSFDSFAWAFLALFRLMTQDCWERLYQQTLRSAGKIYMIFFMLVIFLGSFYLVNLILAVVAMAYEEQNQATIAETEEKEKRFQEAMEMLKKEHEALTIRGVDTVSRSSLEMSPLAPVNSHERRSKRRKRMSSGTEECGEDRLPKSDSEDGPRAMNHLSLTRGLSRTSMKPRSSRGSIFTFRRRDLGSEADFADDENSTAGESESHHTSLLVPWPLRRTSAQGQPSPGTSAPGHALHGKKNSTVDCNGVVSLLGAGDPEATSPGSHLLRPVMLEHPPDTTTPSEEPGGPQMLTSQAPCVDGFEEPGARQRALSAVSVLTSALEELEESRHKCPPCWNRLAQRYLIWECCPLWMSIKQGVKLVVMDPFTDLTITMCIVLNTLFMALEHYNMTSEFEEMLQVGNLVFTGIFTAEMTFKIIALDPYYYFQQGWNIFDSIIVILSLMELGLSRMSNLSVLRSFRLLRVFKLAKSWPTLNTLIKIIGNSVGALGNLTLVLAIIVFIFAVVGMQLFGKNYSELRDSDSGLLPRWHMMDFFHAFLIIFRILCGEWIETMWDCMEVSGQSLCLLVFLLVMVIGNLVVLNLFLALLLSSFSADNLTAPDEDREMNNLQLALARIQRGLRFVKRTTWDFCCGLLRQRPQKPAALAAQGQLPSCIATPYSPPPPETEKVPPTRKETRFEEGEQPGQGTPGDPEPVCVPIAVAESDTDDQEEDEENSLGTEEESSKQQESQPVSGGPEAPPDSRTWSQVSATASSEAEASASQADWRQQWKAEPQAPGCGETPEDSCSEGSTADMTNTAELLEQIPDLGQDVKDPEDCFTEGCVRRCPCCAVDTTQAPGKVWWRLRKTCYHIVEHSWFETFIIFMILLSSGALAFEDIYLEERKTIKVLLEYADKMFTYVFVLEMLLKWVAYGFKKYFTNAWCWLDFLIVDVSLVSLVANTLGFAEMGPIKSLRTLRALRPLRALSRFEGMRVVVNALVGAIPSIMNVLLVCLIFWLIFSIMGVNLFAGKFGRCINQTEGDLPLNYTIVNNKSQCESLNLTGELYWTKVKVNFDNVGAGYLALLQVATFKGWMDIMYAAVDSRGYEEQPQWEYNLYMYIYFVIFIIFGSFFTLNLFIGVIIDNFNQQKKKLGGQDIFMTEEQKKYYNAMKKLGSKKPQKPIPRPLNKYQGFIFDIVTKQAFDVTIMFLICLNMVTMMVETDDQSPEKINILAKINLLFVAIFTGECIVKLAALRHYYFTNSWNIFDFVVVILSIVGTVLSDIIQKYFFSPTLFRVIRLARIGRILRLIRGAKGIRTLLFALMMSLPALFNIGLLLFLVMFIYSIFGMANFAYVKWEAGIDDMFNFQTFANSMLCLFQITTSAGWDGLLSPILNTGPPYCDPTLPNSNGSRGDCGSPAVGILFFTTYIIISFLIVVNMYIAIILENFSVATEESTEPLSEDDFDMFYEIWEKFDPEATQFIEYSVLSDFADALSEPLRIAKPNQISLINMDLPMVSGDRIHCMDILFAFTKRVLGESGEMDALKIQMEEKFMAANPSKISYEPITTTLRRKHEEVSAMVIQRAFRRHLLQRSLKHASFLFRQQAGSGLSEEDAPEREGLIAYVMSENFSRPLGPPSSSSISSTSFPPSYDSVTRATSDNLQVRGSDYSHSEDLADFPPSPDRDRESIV

Canis familiaris [31] = assay: Toxicity in anesthetized Mongrel dog assessed as effect on ECG at 0.3 to 100 ug/kg/min, iv administered as 60 mins infusion measured up to 60 mins by electrophysiology method; assay type: organism-based, Canis lupus familiaris; details: in vivo, 1 h
[32] = Metabolic stability in human hepatocytes up to 3 hrs by mass spectrometry; assay type: ADME, cell-based, Hepatocyte
[33] = Volume of distribution at steady state in rhesus monkey; assay type: ADME, Macaca mulatta; details: in vivo, read-out: Vdss
[34] = Selectivity index, ratio of IC50 for human KCNQ1/KCNE1 IKs channel expressed in HEK293 cells to IC50 for Kv1.5 IKur channel in human atrial myocytes
[35] = molecular target: T4, Potassium voltage-gated channel subfamily A member 5; assay: Inhibition of Kv1.5 mediated ultra-rapid delayed rectifier current Ikur in human atrial myocytes by voltage-patch clamp electrophysiology method; assay type: cell-based
[36] = Terminal half-life in rhesus monkey; assay type: ADME, Macaca mulatta; details: in vivo, read-out: beta t1/2 (converted)

Question: With `O[C@@H](c1cccnc1-c1cc(Cl)cc(Cl)c1)C(c1cccnc1)c1cccnc1` as the compound, how does the bioavailability [1] read?
Answer: Its bioavailability is 21%.

Question: And the Activity (Canis familiaris [2])?
Answer: Its Activity is “Non-Toxic”.

Question: And the “Selectivity Index” value (Canis familiaris [3])?
Answer: Its value is >1800.

Question: And the Activity (Canis familiaris [4])?
Answer: The Activity was “Active”.

Question: What about the EC10 (Canis familiaris [5]) of the same compound?
Answer: Its EC10 is 0.014 µM.

Question: And the Activity (Canis familiaris [6])?
Answer: The Activity was “Non-Toxic”.

Question: What about the IC50 [7] of the same compound?
Answer: The IC50 was > 30 µM.

Question: What about the Activity (Canis familiaris [8]) of the same compound?
Answer: Its Activity is “Non-Toxic”.

Question: And the clearance [9]?
Answer: The clearance was 0.222 L/h/kg.

Question: And the half-life [10]?
Answer: Its half-life is 2.6 h.

Question: And the fraction unbound [11]?
Answer: The fraction unbound was 0.16.

Question: And the clearance [12]?
Answer: Its clearance is 0.858 L/h/kg.

Question: What about the bioavailability [13] of the same compound?
Answer: The bioavailability was 93%.

Question: And the half-life [14]?
Answer: Its half-life is 1.6 h.

Question: And the inhibition at 10 µM (KCNQ1/KCNE1 (IKs) [15])?
Answer: The inhibition at 10 µM was 5.7%.

Question: And the IC50 [16]?
Answer: The IC50 was 8.3 µM.

Question: What about the fraction unbound [17] of the same compound?
Answer: The fraction unbound was 0.08.

Question: And the Vd [18]?
Answer: Its Vd is 1.59 L/kg.

Question: And the Activity (Canis familiaris [19])?
Answer: Its Activity is “Non-Toxic”.

Question: And the Activity (Canis familiaris [20])?
Answer: Its Activity is “Non-Toxic”.

Question: And the IC50 [21]?
Answer: Its IC50 is 128 µM.

Question: And the Vd [22]?
Answer: The Vd was 0.81 L/kg.

Question: What about the bioavailability [23] of the same compound?
Answer: Its bioavailability is 34%.

Question: And the fraction unbound [24]?
Answer: The fraction unbound was 0.21.

Question: And the Activity (Canis familiaris [25])?
Answer: Its Activity is “Non-Toxic”.

Question: And the clearance [26]?
Answer: Its clearance is 1 L/h/kg.

Question: What about the IC50 [27] of the same compound?
Answer: Its IC50 is 0.029 to 2.92 µM.

Question: And the Activity (Canis familiaris [28])?
Answer: Its Activity is > 25 µM.

Question: What about the Ratio (Homo sapiens) of the same compound?
Answer: Its Ratio is 30.

Question: What about the inhibition at 30 µM (KCNQ1/KCNE1 (IKs) [29]) of the same compound?
Answer: The inhibition at 30 µM was 7%.

Question: And the “inhibition (INH)” value [30]?
Answer: The value was “Not Active”.

Question: And the Activity (Canis familiaris [31])?
Answer: Its Activity is “Non-Toxic”.

Question: What about the Stability [32] of the same compound?
Answer: Its Stability is “Unstable”.

Question: And the Vd [33]?
Answer: The Vd was 0.99 L/kg.

Question: What about the “Ratio IC50” value [34] of the same compound?
Answer: Its value is >3000.

Question: What about the IC50 [35] of the same compound?
Answer: The IC50 was 0.011 µM.

Question: What about the half-life [36] of the same compound?
Answer: The half-life was 1 h.
